Consider 18 compounds from patent publication US20130296358A1, “3-SPIROCYCLIC PIPERIDINE DERIVATIVES AS GHRELIN RECEPTOR AGONISTS” (priority 2012, published 2013).

Molecules are shown by their SMILES.

Experiment [1] addresses T1, human recombinant ghrelin receptor (GHS-R1a) (Homo sapiens, UniProt Q92847).
T1 construct: host or cells: CHO-K1
The experiment is described as follows: Calcium assay, CHO-K1 cells expressing hGHS-R1a (Fluo-4). It counts as cell-based. As to the method: (§1) Chinese hamster ovary (CHO-K1) cells expressing human recombinant ghrelin receptor (GHS-R1a) were purchased from Euroscreen (ES-410-C) and propagated in UltraCHO medium containing glutamine and supplemented with 1% heat inactivated foetal calf serum (FCS), 100 U/ml penicillin, 100 mg/l streptomycin and 0.8 g/l geneticin. Cells were sub-cultured twice a week with a 1:10 dilution. For passaging, cells were washed with 1× DPBS without calcium and magnesium, trypsinised for 10 min with 0.05% Trypsin/EDTA and resuspended in cell culture medium.
Cells were diluted to achieve 1×10^6 cells/ml, seeded in 384-well black clear bottom CellBind plates at 25000 cells/well (25u1) and incubated overnight at 37° C./5% CO2 Cells were expected to be 85-90% confluent on the day of assay (checked under the microscope) to ensure a high quality assay. Media was manually removed and 40 μl of loading solution containing probenecid and Fluo-4 no wash dye (a calcium indicator, Invitrogen F36206) were added to each well. After 30 min at 37° C. followed by another 30 min at RT, cpds were added to the wells. To generate a dose response up to 30 μM, 10 mM compound stocks in 100% (v/v) DMSO were firstly diluted in 50% (v/v) DMSO. Then, serial dilutions aimed at a full logarithmic dose responses (8 point) were performed in assay buffer [1×HBSS, 20 mM Hepes, 0.1% (w/v) BSA] to give 2.5% (v/v) DMSO and 5× final compound concentrations. The final assay DMSO concentration was 0.5% (v/v). After loading the cells with Fluo-4 containing solution, plates were read on a CeIlLux instrument (Perkin Elmer). A protocol set up to add 10 μl of 5× compound and to read the plate for 60sec after adding the compound at 17th sec was used. Fluorescence excitation took place at 494 nm and emission at 516 nm. EC50 values of agonists were calculated by fitting the percent stimulation over background [(Max-Min)/Min] using the nonlinear logistic function of the Prism 5 software (GraphPad, USA).

Experiment [2] concerns the target T1, human recombinant ghrelin receptor (GHS-R1a). The experiment is described as follows: cAMP assay (HTRF), CHO-hGHS-R1a cells. It counts as cell-based. Here is the method:
as §1
The Homogeneous Time-Resolved Fluorescence (HTRF) cAMP dynamic 2 kit (Cisbio International, France) was used as follows. CHO-hGHS—R1a or CHO-rGHS—R1a cells were seeded in a volume of 25 μl culture media at 10,000 cells/well (400,000 cells/ml) in Greiner white 384-well high volume plates and incubated overnight (18-24 h) at 37° C./5% CO2. Then, media was removed and 6 μl assay buffer [HBSS, 10 mM Hepes, 0.2% (w/v) BSA, 1.7 mM IBMX, (pH7.4)] were added to the wells. To generate a dose response up to 30 μM, 10 mM compound stocks in 100% (v/v) DMSO were firstly diluted in 50% (v/v) DMSO followed by a further dilution into assay buffer. Then, 4 μl of 2.5× compound (dose response as 9 point log serial dilution in assay buffer from 30 μM as maximum concentration) were added to each well achieving a final DMSO assay concentration of 0.8% (v/v). 0.1 μM forskolin was added as positive control. After 30 min (rGHS—R1a cell line) or 60 min (hGHS—R1a cell line) incubation at 37° C./5% CO2, 5 μl of cAMP-d2 and 5 μl of anti-cAMP antibody-cryptate, (both made in lysis buffer), were added to the plate followed by 1 h incubation at RT. During this time, cAMP produced by the cells competed with cAMP-d2 for the anti-cAMP antibody-cryptate molecule. Then, the plate was read on the Pherastar instrument (BMG, Germany) at two different emission wavelengths ([…]). Increasing levels of endogenous cAMP produced by cells could be followed by a decrease of FRET fluorescent signal and viceversa. Values represented by a change in arbitrary fluorescence ratios (665/620) were converted into cAMP concentrations by using a standard curve, the reagents for which were supplied with the kit. EC50 values of agonists were calculated using the nonlinear logistic function of the Prism 5 software (GraphPad, USA). Emax were expressed as relative values of the ghrelin response, which was defined as 100%.
Background: Cyclic AMP is a second messenger, typically raised through Gs and lowered through Gi signalling.

Experiment [3] deals with rat fundus. The experiment is described as follows: Rat fundus contractility assay (EFS-induced contraction of muscle strips). Conditions: for EC50: increase of EFS-induced contraction, mean of preparations from at least 3 animals; for Emax/% / Emax: relative to the response to ghrelin (100 nM), defined as 100%. Here is the method: Male Sprague Dawley rats (180-250 g) were culled by cervical dislocation and the fundus was removed. Each fundus was placed on a Krebs Henseleit (KH) buffer soaked dissection dish and cut along the long curvature to form a flattened sheet that was pinned in each corner. Four adjacent longitudinal strips (10×3 mm) were cut and the mucosa removed by sharp dissection. Each muscle strip was mounted in a 10 ml organ bath containing oxygenated KH at 37° C. Each strip was connected to an isometric force transducer, calibrated initially using a 5 g weight. The signal (g tension) was amplified and responses recorded by a Powerlab data capture system, connected to a computer running Labchart software (version 5.0). Tissues were placed under 1 g tension for an equilibration period of 30 min or until the baseline tension had stabilised. Carbachol (CCh, 100 nM) was then administered to establish the maximum contractile response of each preparation. Tissues were washed thoroughly and left for 30 min to re-equilibrate. Next, the muscle strips underwent electrical field stimulation (EFS). Maximal EFS pulse trains of 12V, 5 Hz, 0.1 msec pulse width, for 2 sec every 60 sec were applied until consistent electrically-stimulated phasic contractions were recorded. The voltage was then reduced in 1V increments until a consistent submaximal (EC50-75) EFS response was observed. Ghrelin (100 nM) was administered and left until a maximum response was obtained. Tissues were then washed thoroughly and left for 30 min. Once the EFS-induced contraction had re-stabilised, cumulative additions (10 nM-10 μM) of each test compound were administered. Individual responses were calculated by determining the peak of the EFS-induced contraction minus the baseline. […] The mean EC50 value for compounds was generated from data obtained on stomach preparations from at least 3 different animals.

Setting [4] is: CHO-K1, relative to the Emax induced by MK-0677 (defined as 100%), read-out: hGHS-R1a Ca assay Emax/%.
Setting [5] is: relative to the ghrelin response (defined as 100%).

T1 sequence (Q92847 whole entry): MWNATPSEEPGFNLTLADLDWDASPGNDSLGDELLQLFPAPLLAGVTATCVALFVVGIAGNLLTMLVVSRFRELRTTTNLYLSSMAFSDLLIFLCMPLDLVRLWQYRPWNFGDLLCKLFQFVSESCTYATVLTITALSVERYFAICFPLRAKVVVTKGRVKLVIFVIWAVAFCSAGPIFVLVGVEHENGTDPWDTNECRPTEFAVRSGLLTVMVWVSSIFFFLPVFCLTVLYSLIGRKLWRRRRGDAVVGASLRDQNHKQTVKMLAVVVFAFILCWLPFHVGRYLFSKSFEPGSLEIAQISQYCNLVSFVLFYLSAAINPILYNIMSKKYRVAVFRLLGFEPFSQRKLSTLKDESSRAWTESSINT

As to `CCC(N)(CC)C(=O)N[C@H](COCc1ccccc1)C(=O)N1CCC[C@@]2(C1)C(=O)N(C)C[C@H]2c1ccccc1` [Example 1.71, 2-amino-N-((R)-3-(benzyloxy)-1-((4S,5R)-2-methyl-1-oxo-4-phenyl-2,7-diazaspiro[4.5]decan-7-yl)-1-oxopropan-2-yl)-2-ethylbutanamide], the Emax amounted to 108% in experiment [1] (setting [4]) and 111% in experiment [2] (setting [5]).

`CC(C)(N)C(=O)N[C@H](COCc1ccccc1)C(=O)N1CCC2(CC1)CN(S(C)(=O)=O)c1ccccc12` [MK-0677, reference compound]: in experiment [1] (compared with ghrelin), the Emax result is recorded as “same Emax as ghrelin”.

Regarding `CN1CC(c2ccccc2)C2(CCCN(C(=O)[C@@H](CCc3ccccc3)NC(=O)C(C)(C)N)C2)C1=O` (single isomer, unassigned) [Example 1.28], the Emax was found to be 106% in experiment [1] (setting [4]) and 194% in experiment [2] (setting [5]).

Regarding `CN1CC(c2ccccc2)C2(CCCN(C(=O)[C@@H](COCC3CCCCC3)NC(=O)C(C)(C)N)C2)C1=O` (single isomer, unassigned) [Example 1.60], the Emax worked out at 98% in experiment [1] (setting [4]) and 171% in experiment [2] (setting [5]).

As to `CN1CC(c2ccccc2)C2(CCN(C(=O)[C@@H](COCc3ccccc3)NC(=O)C(C)(C)N)C2)C1=O` (single isomer, unassigned) [Example 8.0], the Emax in experiment [1] (setting [4]) came to 101%; in experiment [2] (setting [5]) it was 129%. Besides, the EC50 came to 0.0046 µM in experiment [1] (CHO-K1 cells expressing hGHS-R1a, read-out: hGHS-R1a Ca assay EC50/μM) and 2.38 µM in experiment [2] (CHO-hGHS-R1a cells, 60 min incubation, maximum concentration 30 μM).

Turning to `Cc1ccc(C2CN(C)C(=O)C23CCCN(C(=O)[C@@H](COCc2ccccc2)NC(=O)C(C)(C)N)C3)cc1` (single isomer, unassigned) [Example 1.53], the Emax in experiment [1] (setting [4]) was 89%; in experiment [2] (setting [5]) it was 212%.

On to `CN1CC(c2ccccc2)C2(CCCN(C(=O)[C@@H](COCc3ccc(F)cc3)NC(=O)C(C)(C)N)C2)C1=O` (single isomer, unassigned) [Example 7.0, 2-Amino-N—[(R)-1-(4-fluoro-benzyloxymethyl)-2-(4S,5R)-2-methyl-1-oxo-4-phenyl-2,7-diaza-spiro[4.5]clec-7-yl)-2-oxo-ethyl]-2-methyl-propionamide or 2-Amino-N—[(R)-1-(4-fluoro-benzyloxymethyl)-2-(4R,5S)-2-methyl-1-oxo-4-phenyl-2,7-diaza-spiro[4.5]clec-7-yl)-2-oxo-ethyl]-2-methyl-propionamide], for which the Emax is 83% in experiment [1] (setting [4]) and 153% in experiment [2] (setting [5]).

With `CC(C)N1CC(c2ccc(F)cc2)C2(CCCN(C(=O)[C@@H](COCc3ccccc3)NC(=O)C(C)(C)N)C2)C1=O` (single isomer, unassigned) [Example 1.19], in experiment [3], the EC50 stood at 23 nM and the Emax/% was determined as 124%.

For `COc1ccc(C2CN(C)C(=O)C23CCCN(C(=O)[C@@H](COCc2ccccc2)NC(=O)C(C)(C)N)C3)cc1` (stereo partly drawn) [Example 1.74, 2-amino-N-((2R)-3-(benzyloxy)-1-(4-(4-methoxyphenyl)-2-methyl-1-oxo-2,7-diazaspiro[4.5]decan-7-yl)-1-oxopropan-2-yl)-2-methylpropanamide], the Emax stood at 103% in experiment [1] (setting [4]) and 123% in experiment [2] (setting [5]).

Regarding `CN1CC(c2ccccc2)C2(CCCN(C(=O)[C@@H](COCc3ccccc3)NC(=O)C(C)(N)C(F)(F)F)C2)C1=O` (stereo partly drawn) [Example 1.73, 2-amino-N-((2R)-3-(benzyloxy)-1-(2-methyl-1-oxo-4-phenyl-2,7-diazaspiro[4.5]decan-7-yl)-1-oxopropan-2-yl)-3,3,3-trifluoro-2-methylpropanamide], the Emax in experiment [1] (setting [4]) is 79%; in experiment [2] (setting [5]), 1%.

In experiment [3] (Rattus norvegicus), `CC(C)N1CC(c2ccccc2)C2(CCCN(C(=O)[C@@H](Cc3c[nH]c4ccccc34)NC(=O)C(C)(C)N)C2)C1=O` (single isomer, unassigned) [Example 3.0(ii)] had an EC50 of 15 nM and an Emax of 85%.

Turning to `CCN1CC(c2ccccc2)C2(CCCN(C(=O)[C@@H](COCc3ccccc3)NC(=O)C(C)(C)N)C2)C1=O` (single isomer, unassigned) [Example 1.25], the Emax in experiment [1] (setting [4]) is 103%; in experiment [2] (setting [5]), 223%.

In experiment [3], `CN1C(=O)C2(CCCN(C(=O)[C@@H](COCc3ccccc3)NC(=O)C(C)(C)N)C2)C1c1ccccc1` (single isomer, unassigned) [Example 2.0(iii)] showed an EC50 of 70 nM and an Emax/% of 70%.

As for `CN1CC(c2ccccc2)C2(CCCN(C(=O)[C@@H](CCCc3ccccc3)NC(=O)C(C)(C)N)C2)C1=O` (single isomer, unassigned) [Example 1.33], in experiment [3], the EC50 stood at 84 nM and the Emax/% stood at 131%.

For the compound `CC(C)N1CC(c2ccc(F)cc2)C2(CCCN(C(=O)[C@@H](COCc3ccccc3)NC(=O)C(C)(C)N)C2)C1=O` (single isomer, unassigned) [Example 1.18], the Emax in experiment [3] (Rattus norvegicus) was 117%. For the same compound, the EC50 in experiment [3] is 148 nM.

`CN1CC(c2ccc(F)cc2)C2(CCCN(C(=O)[C@@H](COCc3ccc(Cl)cc3)NC(=O)C(C)(C)N)C2)C1=O` (single isomer, unassigned) [Example 1.57]: the Emax worked out at 84% in experiment [1] (setting [4]) and 173% in experiment [2] (setting [5]).

Consider `CC(C)(N)C(=O)N[C@H](COCc1ccccc1)C(=O)N1CCCC2(C1)C(=O)NCC2c1ccccc1` (single isomer, unassigned) [Example 1.49], for which, in experiment [2] (setting [5]), the “hGHS-R1a cAMP assay Emax/%” value came out at 88%.

`CC(C)N1CC(c2ccccc2)C2(CCCN(C(=O)[C@@H](COCc3ccccc3)NC(=O)C(C)(C)N)C2)C1=O` (single isomer, unassigned) [Example 1.6]: in experiment [3], the EC50 is 373 nM and the Emax/% is reported as 70%.
